AC50 data for twelve compounds are collected here from ChEMBL document CHEMBL5291721, “A preclinical secondary pharmacology resource illuminates target-adverse drug reaction associations of marketed drugs” (Nat Commun, 2023).

The target in assay [1] is T1, Corticotropin-releasing factor receptor 2 (Homo sapiens, UniProt Q13324).
T1 sequence (Q13324 whole entry): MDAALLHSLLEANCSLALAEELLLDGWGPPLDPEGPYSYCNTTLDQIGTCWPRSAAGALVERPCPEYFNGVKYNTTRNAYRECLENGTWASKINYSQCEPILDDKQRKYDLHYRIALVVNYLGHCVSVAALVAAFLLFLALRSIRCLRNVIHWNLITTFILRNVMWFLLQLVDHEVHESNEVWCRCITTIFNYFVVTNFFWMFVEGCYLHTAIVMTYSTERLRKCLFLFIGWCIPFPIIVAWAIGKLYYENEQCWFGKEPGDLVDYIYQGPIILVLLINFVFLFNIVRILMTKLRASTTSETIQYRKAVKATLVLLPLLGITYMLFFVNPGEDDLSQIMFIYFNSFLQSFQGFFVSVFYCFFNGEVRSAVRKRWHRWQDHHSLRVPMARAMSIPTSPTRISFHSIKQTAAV

The target of assay [2] is Glucagon receptor (Homo sapiens, UniProt P47871).
Glucagon receptor, sequence (P47871 whole entry): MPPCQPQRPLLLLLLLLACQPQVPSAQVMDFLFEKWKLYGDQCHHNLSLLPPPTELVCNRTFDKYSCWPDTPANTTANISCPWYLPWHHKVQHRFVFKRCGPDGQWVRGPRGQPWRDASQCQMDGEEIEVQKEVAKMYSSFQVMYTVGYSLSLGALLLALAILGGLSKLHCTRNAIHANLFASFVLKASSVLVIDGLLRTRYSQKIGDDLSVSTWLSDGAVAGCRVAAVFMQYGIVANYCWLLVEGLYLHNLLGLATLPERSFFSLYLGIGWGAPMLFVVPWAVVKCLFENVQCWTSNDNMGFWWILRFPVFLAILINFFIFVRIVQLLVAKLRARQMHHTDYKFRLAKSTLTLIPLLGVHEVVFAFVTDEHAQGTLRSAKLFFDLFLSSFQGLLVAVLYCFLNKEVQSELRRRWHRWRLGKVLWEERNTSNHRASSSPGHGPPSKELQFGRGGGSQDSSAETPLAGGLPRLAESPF
In assay [3] the target is T2, Corticotropin-releasing factor receptor 1 (Homo sapiens, UniProt P34998).
T2 sequence (P34998 whole entry): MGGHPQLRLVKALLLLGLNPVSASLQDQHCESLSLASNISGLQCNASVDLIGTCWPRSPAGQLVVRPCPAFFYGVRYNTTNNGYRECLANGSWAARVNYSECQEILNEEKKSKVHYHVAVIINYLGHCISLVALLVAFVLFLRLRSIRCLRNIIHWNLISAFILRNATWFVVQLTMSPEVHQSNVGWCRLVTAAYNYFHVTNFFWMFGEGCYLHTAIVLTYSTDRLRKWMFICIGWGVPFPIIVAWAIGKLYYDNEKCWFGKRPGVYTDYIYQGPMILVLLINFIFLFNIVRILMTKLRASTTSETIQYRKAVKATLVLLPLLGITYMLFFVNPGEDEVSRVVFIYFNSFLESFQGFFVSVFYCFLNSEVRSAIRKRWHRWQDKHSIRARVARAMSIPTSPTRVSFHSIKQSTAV

Assay [4] concerns the target T3, Progesterone receptor (Homo sapiens, UniProt P06401).
T3 sequence (P06401 whole entry): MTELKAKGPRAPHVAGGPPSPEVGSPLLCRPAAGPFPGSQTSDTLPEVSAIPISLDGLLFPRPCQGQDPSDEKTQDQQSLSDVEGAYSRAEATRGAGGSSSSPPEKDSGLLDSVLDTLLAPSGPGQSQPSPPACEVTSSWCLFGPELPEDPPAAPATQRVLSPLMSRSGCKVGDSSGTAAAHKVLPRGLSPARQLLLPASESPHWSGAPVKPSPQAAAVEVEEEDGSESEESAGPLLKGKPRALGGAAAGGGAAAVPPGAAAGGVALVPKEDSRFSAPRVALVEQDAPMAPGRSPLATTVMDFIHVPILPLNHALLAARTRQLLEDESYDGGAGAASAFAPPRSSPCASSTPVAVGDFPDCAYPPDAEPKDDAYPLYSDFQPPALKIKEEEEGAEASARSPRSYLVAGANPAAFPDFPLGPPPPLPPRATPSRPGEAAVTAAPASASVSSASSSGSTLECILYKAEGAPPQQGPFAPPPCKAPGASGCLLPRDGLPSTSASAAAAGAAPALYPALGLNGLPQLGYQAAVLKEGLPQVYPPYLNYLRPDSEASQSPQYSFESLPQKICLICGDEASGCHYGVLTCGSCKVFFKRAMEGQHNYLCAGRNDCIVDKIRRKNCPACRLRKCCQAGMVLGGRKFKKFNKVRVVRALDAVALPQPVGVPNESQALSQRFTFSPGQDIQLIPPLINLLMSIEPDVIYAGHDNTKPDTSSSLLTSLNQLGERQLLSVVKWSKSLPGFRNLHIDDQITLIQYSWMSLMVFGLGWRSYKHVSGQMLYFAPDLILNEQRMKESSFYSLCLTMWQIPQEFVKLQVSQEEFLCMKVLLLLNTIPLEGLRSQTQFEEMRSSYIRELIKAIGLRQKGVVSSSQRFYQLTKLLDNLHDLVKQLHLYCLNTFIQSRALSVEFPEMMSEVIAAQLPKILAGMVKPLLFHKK

Assay [5] deals with Neurotensin receptor type 1 (Homo sapiens, UniProt P30989).
Neurotensin receptor type 1, sequence (P30989 whole entry): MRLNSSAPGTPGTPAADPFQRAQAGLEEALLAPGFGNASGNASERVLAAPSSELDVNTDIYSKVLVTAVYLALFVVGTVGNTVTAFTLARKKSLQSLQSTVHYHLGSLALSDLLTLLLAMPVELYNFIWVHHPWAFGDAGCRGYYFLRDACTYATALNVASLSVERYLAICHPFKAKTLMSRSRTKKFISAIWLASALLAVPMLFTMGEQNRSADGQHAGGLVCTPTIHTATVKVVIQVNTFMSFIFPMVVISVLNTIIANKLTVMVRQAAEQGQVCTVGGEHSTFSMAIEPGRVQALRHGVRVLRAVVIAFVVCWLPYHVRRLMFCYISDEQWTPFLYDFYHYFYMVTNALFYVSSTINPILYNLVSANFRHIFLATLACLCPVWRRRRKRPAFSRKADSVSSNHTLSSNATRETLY
In assay [6] the target is T4, Neuropeptide Y receptor type 2 (Homo sapiens, UniProt P49146).
T4 sequence (P49146 whole entry): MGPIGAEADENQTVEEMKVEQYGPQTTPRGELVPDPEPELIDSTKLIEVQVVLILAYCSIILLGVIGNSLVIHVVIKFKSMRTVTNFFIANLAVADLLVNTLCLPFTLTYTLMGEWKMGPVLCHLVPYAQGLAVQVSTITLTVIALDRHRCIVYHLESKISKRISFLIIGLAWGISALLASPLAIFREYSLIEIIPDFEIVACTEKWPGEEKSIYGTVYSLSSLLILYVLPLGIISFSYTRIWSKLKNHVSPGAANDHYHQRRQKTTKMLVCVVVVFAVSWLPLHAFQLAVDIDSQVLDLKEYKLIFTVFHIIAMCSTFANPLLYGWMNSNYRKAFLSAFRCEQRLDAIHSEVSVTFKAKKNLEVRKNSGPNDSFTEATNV

Assay [7] has as its target T5, 5-hydroxytryptamine receptor 1A (Homo sapiens, UniProt P08908).
T5 sequence (P08908 whole entry): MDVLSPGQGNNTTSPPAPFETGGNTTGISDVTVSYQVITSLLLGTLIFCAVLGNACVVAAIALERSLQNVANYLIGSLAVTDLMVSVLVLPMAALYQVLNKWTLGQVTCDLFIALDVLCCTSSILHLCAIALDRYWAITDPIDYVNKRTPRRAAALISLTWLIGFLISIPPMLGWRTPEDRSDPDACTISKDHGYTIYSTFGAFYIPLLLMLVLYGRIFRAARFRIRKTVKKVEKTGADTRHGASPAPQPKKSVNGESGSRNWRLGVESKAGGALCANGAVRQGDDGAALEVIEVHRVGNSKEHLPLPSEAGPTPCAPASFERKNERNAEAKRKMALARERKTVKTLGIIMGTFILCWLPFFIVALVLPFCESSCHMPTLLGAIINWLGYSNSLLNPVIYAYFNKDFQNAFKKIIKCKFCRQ

Assay [8] has as its target Gamma-aminobutyric acid receptor subunit alpha-1 (Rattus norvegicus, UniProt P62813).

SMILES strings stand for the structures. Bounds are passed on as bounds.
Note: assay procedure not described here.

Gamma-aminobutyric acid receptor subunit alpha-1, sequence (P62813 whole entry): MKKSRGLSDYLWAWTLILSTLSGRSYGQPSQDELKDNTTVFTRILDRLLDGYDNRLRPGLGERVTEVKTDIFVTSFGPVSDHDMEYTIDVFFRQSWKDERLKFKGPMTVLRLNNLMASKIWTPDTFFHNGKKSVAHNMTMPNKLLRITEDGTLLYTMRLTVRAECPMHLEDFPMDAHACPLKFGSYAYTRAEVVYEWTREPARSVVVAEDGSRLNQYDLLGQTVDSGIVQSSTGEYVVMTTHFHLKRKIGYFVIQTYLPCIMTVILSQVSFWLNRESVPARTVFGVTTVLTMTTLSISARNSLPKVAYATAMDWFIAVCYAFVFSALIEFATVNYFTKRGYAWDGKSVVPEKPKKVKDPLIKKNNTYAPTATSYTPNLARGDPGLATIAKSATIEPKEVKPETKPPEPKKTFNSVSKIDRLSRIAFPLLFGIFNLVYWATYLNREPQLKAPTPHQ

As a reminder, the AC50 is the concentration giving half of the maximal activity seen. Low values mean greater potency, high ones weaker potency. For `CC(C)COCC(CN(Cc1ccccc1)c1ccccc1)N1CCCC1` (stereo not drawn) [BEPRIDIL], the AC50 in assay [1], in assay [2], in assay [3], in assay [4], in assay [5] and in assay [6] was greater than 30 µM in each case.
For `O=C(O)c1cn(C2CC2)c2cc(N3CCNCC3)c(F)cc2c1=O` [CIPROFLOXACIN], the AC50 in assay [1], in assay [2], in assay [3], in assay [4], in assay [5] and in assay [6] was greater than 30 µM in each case.
As to `CC(CCc1ccc(O)cc1)NCCc1ccc(O)c(O)c1` (stereo not drawn) [DOBUTAMINE], the AC50 in assay [1] was greater than 30 µM; in assay [2], greater than 30 µM; in assay [3] it was greater than 30 µM; in assay [7], greater than 10 µM; in assay [4], greater than 30 µM; in assay [5] it was greater than 30 µM. Also, the AC50 in assay [6] was greater than 30 µM.
As to `CCC(=O)O[C@]1(C(=O)SCF)[C@H](C)C[C@H]2[C@@H]3C[C@H](F)C4=CC(=O)C=C[C@]4(C)[C@@]3(F)[C@@H](O)C[C@@]21C` [FLUTICASONE PROPIONATE], the AC50 in assay [1] was greater than 30 µM; in assay [2], greater than 30 µM; in assay [3], greater than 30 µM; in assay [7], greater than 10 µM; in assay [8], greater than 30 µM; in assay [5], greater than 30 µM. The same compound showed an AC50 in assay [6] greater than 30 µM.
In the case of `Cc1cnc(C(=O)NCCc2ccc(S(=O)(=O)NC(=O)NC3CCCCC3)cc2)cn1` [GLIPIZIDE], the AC50 was greater than 30 µM in assay [1]; greater than 30 µM in assay [2]; greater than 30 µM in assay [3]; greater than 10 µM in assay [7]; greater than 30 µM in assay [4]; greater than 30 µM in assay [5]. Moreover, the AC50 in assay [6] is greater than 30 µM.
Take `CC(C)NCC(O)c1ccc(O)c(O)c1` (stereo not drawn) [ISOPROTERENOL]: the AC50 in assay [1] is greater than 30 µM; in assay [2], greater than 30 µM; in assay [3], greater than 30 µM; in assay [7], greater than 10 µM; in assay [4], greater than 30 µM; in assay [5], greater than 30 µM. The same compound displayed an AC50 in assay [6] greater than 30 µM.
Consider `CN1CCN(C2=Nc3ccccc3Oc3ccc(Cl)cc32)CC1` [LOXAPINE], for which the AC50 in assay [1] was greater than 30 µM; in assay [2], greater than 30 µM; in assay [3], greater than 30 µM; in assay [7], 33.1 µM; in assay [4], greater than 30 µM; in assay [8], greater than 30 µM. In addition, the AC50 in assay [5] and in assay [6] was greater than 30 µM throughout.
With `OC1(c2ccc(Cl)cc2)c2ccccc2C2=NCCN21` (stereo not drawn) [MAZINDOL], the AC50 was greater than 30 µM in assay [1]; greater than 30 µM in assay [2]; greater than 30 µM in assay [3]; greater than 10 µM in assay [7]; greater than 30 µM in assay [4]; greater than 30 µM in assay [5]. For the same compound, the AC50 in assay [6] was greater than 30 µM.
In the case of `CC12CC3CC(C)(C1)CC(N)(C3)C2` [MEMANTINE], the AC50 in assay [1] is greater than 30 µM; in assay [2], greater than 30 µM; in assay [3] it was greater than 30 µM; in assay [7], greater than 10 µM; in assay [4] it was greater than 30 µM; in assay [5], greater than 30 µM. In assay [6], this compound registered an AC50 greater than 30 µM.
On to `CCOC(=O)C1=C(C)NC(C)=C(C(=O)OC)C1c1cccc([N+](=O)[O-])c1` (stereo not drawn) [NITRENDIPINE], for which the AC50 is greater than 30 µM in assay [1]; greater than 30 µM in assay [2]; greater than 30 µM in assay [3]; greater than 10 µM in assay [7]; greater than 30 µM in assay [4]; greater than 30 µM in assay [5]. This compound came in with an AC50 in assay [6] greater than 30 µM.
As to `[H]/N=C(/N)N/C(=N/[H])NCCc1ccccc1` [PHENFORMIN], the AC50 is greater than 30 µM in assay [1]; greater than 30 µM in assay [2]; greater than 30 µM in assay [3]; greater than 10 µM in assay [7]; greater than 30 µM in assay [4]; greater than 30 µM in assay [5]. This compound showed an AC50 in assay [6] greater than 30 µM.
Take `CC(N)C(O)c1ccccc1` (stereo not drawn) [PHENYLPROPANOLAMINE]: the AC50 was greater than 30 µM in assay [1]; greater than 30 µM in assay [2]; greater than 30 µM in assay [3]; greater than 10 µM in assay [7]; greater than 30 µM in assay [4]; greater than 30 µM in assay [5]. For the same compound, the AC50 in assay [6] is greater than 30 µM.
